Laboratory results published in patent US20230116080A1, “METHOD FOR CONTROLLING THE GROWTH OF UNDESIRABLE VEGETATION” (UPL Limited, priority 2021, published 2023).

Tested on: weedy Eleusine indica
Test: Post-emergence herbicidal efficacy of L-glufosinate, other herbicides and their combinations in greenhouse trials (observed control vs Colby expected)
Type: in vivo
Conditions: for Control %: Table 1
Protocol: Evaluation of Post-Emergence Herbicidal Activity of Composition Under […]
Greenhouse trials were carried out to evaluate the efficacy of the combination of L-glufosinate and the other herbicides on weedy Eleusine indica.
The soil used was sandy clay loam—Sand: 68.0%; Silt: 8.0%; Clay: 24.0%.
All treatments were in 3 replications per treatment with a spray volume of […].
The expected efficacy of a combination of L-glufosinate and the other herbicides was calculated using the well-established Colby method. Any difference between the observed and “expected” efficacy could be attributed to synergy between the two compounds.
In the Colby method, the expected (or predicted) response of a combination of herbicides is calculated by taking the product of the observed response for each individual component of the combination when applied alone, divided by 100, and subtracting this value from the sum of the observed response for each component when applied alone. An unexpected enhancement in efficacy of the combination is then determined by comparing the observed response of the combination to the expected (or predicted) response as calculated from the observed response of each individual component alone. If the observed response of the combination is greater than the expected (or predicted) response, or stated conversely, if the difference between the observed and expected response is greater than zero, then the combination is said to be synergistic or unexpectedly effective (Colby, S. R., Weeds, 1967(15), p. 20-22). The Colby method requires only a single dose of each herbicide applied alone and the mixture of both doses. The formula used to calculate the expected efficacy (EE) which was compared with the observed efficacy (OE) to determine the efficacy of the present invention is explained herein below:
The expected efficacy for a combination of two active ingredients is as follows:
The expected efficacy for a combination of three active ingredients is as follows:
The percentage efficacy was calculated after 7, 14, 21, 28, 35 days of applications (DAA). The target weed was weedy Eleusine indica, and the concentration of the herbicide and the results are recorded in the table 1 below:
The percentage efficacy was calculated after 7 and 35 days of application (DAA). The target weed was weedy Eleusine indica, and the concentration of the herbicide and the results are recorded in the table 2 below:
The percentage efficacy was calculated after 3, 7, 14, 21, 28, 35 days of application (DAA). The target weed was weedy Eleusine indica, and the concentration of the herbicide and the results are recorded in the table 3 below:
The target weed was weedy Eleusine indica, and the concentration of the herbicide and the results are recorded in the table 4 below:
The percentage efficacy was calculated after 7, 14, 21, 28 and 35 days of application (DAA). The target weed was weedy Eleusine indica, and the concentration of the herbicide and the results are recorded in the table 5 below:
The percentage efficacy was calculated after 3, 7, 28, 35 days of application (DAA). The target weed was weedy Eleusine indica, and the concentration of the herbicide and the results are recorded in the table 6 below: […]

[1] = Table 4, 3 DAA, g ai/h: L-glufosinate 150, 2,4-D 204
[2] = Table 4, 7 DAA, g ai/h: L-glufosinate 150, 2,4-D 204
[3] = Table 4, 14 DAA, g ai/h: L-glufosinate 150, 2,4-D 204
[4] = Table 4, 21 DAA, g ai/h: L-glufosinate 150, 2,4-D 204
[5] = Table 4, 28 DAA, g ai/h: L-glufosinate 150, 2,4-D 204
[6] = Table 4, 35 DAA, g ai/h: L-glufosinate 150, 2,4-D 204
[7] = 7 DAA, dose a.i. g/h: L-glufosinate 150, oxyfluorfen 107.1, imazethapyr 75, carfentrazone 7.5
[8] = 14 DAA, dose a.i. g/h: L-glufosinate 150, oxyfluorfen 107.1, imazethapyr 75, carfentrazone 7.5
[9] = 21 DAA, dose a.i. g/h: L-glufosinate 150, oxyfluorfen 107.1, imazethapyr 75, carfentrazone 7.5
[10] = 28 DAA, dose a.i. g/h: L-glufosinate 150, oxyfluorfen 107.1, imazethapyr 75, carfentrazone 7.5
[11] = 35 DAA, dose a.i. g/h: L-glufosinate 150, oxyfluorfen 107.1, imazethapyr 75, carfentrazone 7.5
[12] = Table 6, 3 DAA, g ai/h: L-glufosinate 150, clethodim 45
[13] = Table 6, 7 DAA, g ai/h: L-glufosinate 150, clethodim 45
[14] = Table 6, 28 DAA, g ai/h: L-glufosinate 150, clethodim 45
[15] = Table 6, 35 DAA, g ai/h: L-glufosinate 150, clethodim 45
[16] = Table 3, 3 DAA, g ai/h: L-glufosinate 150, flumioxazin 30
[17] = Table 3, 7 DAA, g ai/h: L-glufosinate 150, flumioxazin 30
[18] = Table 3, 14 DAA, g ai/h: L-glufosinate 150, flumioxazin 30
[19] = Table 3, 21 DAA, g ai/h: L-glufosinate 150, flumioxazin 30
[20] = Table 3, 28 DAA, g ai/h: L-glufosinate 150, flumioxazin 30
[21] = Table 3, 35 DAA, g ai/h: L-glufosinate 150, flumioxazin 30
[22] = Table 2, 7 DAA, g ai/h: L-glufosinate 150, glyphosate 379
[23] = Table 2, 35 DAA, g ai/h: L-glufosinate 150, glyphosate 379
[24] = Table 7, 7 DAA, g ai/h: L-glufosinate 150, haloxyfop 50
[25] = Table 5, 7 DAA, g ai/h: L-glufosinate 150, triclopyr 288
[26] = Table 5, 14 DAA, g ai/h: L-glufosinate 150, triclopyr 288
[27] = Table 5, 21 DAA, g ai/h: L-glufosinate 150, triclopyr 288
[28] = Table 5, 28 DAA, g ai/h: L-glufosinate 150, triclopyr 288
[29] = Table 5, 35 DAA, g ai/h: L-glufosinate 150, triclopyr 288

Which results are given for `O=C(O)COc1ccc(Cl)cc1Cl` [2,4-D]?
% control [1]: 5%; % control [2]: 4%; % control [3]: 6.7%; % control [4]: 5%; % control [5]: 5%; % control [6]: 0%

For `Cc1nn(-c2cc(CC(Cl)C(=O)O)c(Cl)cc2F)c(=O)n1C(F)F` (stereo not shown) [Carfentrazone, carfentrazone], which Control % [7] is on record?
Its Control % is 14%.

What about the Control % (7 DAA, dose a.i. g/h: carfentrazone 9.0, alone or with L-glufosinate 150) of the same molecule?
Its Control % is 16.7%.

And the Control % [8]?
The Control % was 12.3%.

What about the Control % (14 DAA, dose a.i. g/h: carfentrazone 9.0, alone or with L-glufosinate 150) of the same molecule?
Its Control % is 16.7%.

What about the Control % [9] of the same molecule?
The Control % was 11%.

What about the Control % (21 DAA, dose a.i. g/h: carfentrazone 9.0, alone or with L-glufosinate 150) of the same molecule?
Its Control % is 14%.

And the Control % [10]?
The Control % was 7.7%.

What about the Control % (28 DAA, dose a.i. g/h: carfentrazone 9.0, alone or with L-glufosinate 150) of the same molecule?
The Control % was 12.3%.

And the Control % [11]?
Its Control % is 0%.

And the Control % (35 DAA, dose a.i. g/h: carfentrazone 9.0, alone or with L-glufosinate 150)?
Its Control % is 6.7%.

Which results are given for `CCSC(C)CC1CC(=O)C(/C(CC)=N/OC/C=C/Cl)=C(O)C1` (stereo not shown) [Clethodim, clethodim]?
% control [12]: 6.7%; % control [13]: 15%; % control [14]: 81.7%; % control [15]: 84.3%

Which results are given for `C#CCN1C(=O)COc2cc(F)c(N3C(=O)C4=C(CCCC4)C3=O)cc21` [Flumioxazin, flumioxazin]?
% control [16]: 5.0%; % control [17]: 28.3%; % control [18]: 21.7%; % control [19]: 10%; % control [20]: 5%; % control [21]: 0%

For `O=C(O)CNCP(=O)(O)O` [Glyphosate, glyphosate], which “% control” value [22] is on record?
Its value is 28.3%.

What about the “% control” value [23] of the same molecule?
Its value is 81.7%.

With `CC(Oc1ccc(Oc2ncc(C(F)(F)F)cc2Cl)cc1)C(=O)O` (stereo not shown) [Haloxyfop, haloxyfop] as the molecule, how does the “% control” value [24] read?
The value was 25%.

What does the source list for `CCc1cnc(C2=NC(C)(C(C)C)C(=O)N2)c(C(=O)O)c1` (stereo not shown) [Imazethapyr, imazethapyr]?
Control % [7]: 8.3%; Control % [8]: 12%; Control % [9]: 12.7%; Control % [10]: 12.7%; Control % [11]: 10%

Which Control % [7] does the source give for `CP(=O)(O)CC[C@H](N)C(=O)O` [L-glufosinate] here?
The Control % was 43.3%.

What about the Control % [8] of the same molecule?
The Control % was 41.3%.

What about the Control % [9] of the same molecule?
Its Control % is 37.3%.

What about the Control % [10] of the same molecule?
Its Control % is 28.3%.

What about the Control % [11] of the same molecule?
Its Control % is 25.3%.

What about the “% control” value [22] of the same molecule?
The value was 50.7%.

What about the “% control” value [23] of the same molecule?
The value was 54.3%.

And the “% control” value [16]?
Its value is 12.3%.

What about the “% control” value [17] of the same molecule?
The value was 50.7%.

And the “% control” value [18]?
Its value is 65.0%.

And the “% control” value [19]?
The value was 64.3%.

And the “% control” value [20]?
Its value is 59.3%.

And the “% control” value [21]?
Its value is 54.3%.

And the “% control” value [1]?
The value was 12.3%.

And the “% control” value [2]?
The value was 50.7%.

What about the “% control” value [3] of the same molecule?
Its value is 65.0%.

And the “% control” value [4]?
The value was 64.3%.

And the “% control” value [5]?
The value was 59.3%.

And the “% control” value [6]?
The value was 54.3%.

And the “% control” value [25]?
The value was 50.7%.

And the “% control” value [26]?
The value was 65.0%.

What about the “% control” value [27] of the same molecule?
The value was 64.3%.

What about the “% control” value [28] of the same molecule?
Its value is 59.3%.

What about the “% control” value [29] of the same molecule?
The value was 54.3%.

What about the “% control” value [12] of the same molecule?
The value was 12.3%.

And the “% control” value [13]?
The value was 50.7%.

What about the “% control” value [14] of the same molecule?
The value was 59.3%.

And the “% control” value [15]?
The value was 54.3%.

And the “% control” value [24]?
Its value is 50.7%.

For `CCOc1cc(Oc2ccc(C(F)(F)F)cc2Cl)ccc1[N+](=O)[O-]` [Oxyfluorfen, oxyfluorfen], which Control % [7] is on record?
Its Control % is 44%.

What about the Control % [8] of the same molecule?
Its Control % is 40%.

What about the Control % [9] of the same molecule?
The Control % was 37%.

And the Control % [10]?
Its Control % is 28.3%.

What about the Control % [11] of the same molecule?
Its Control % is 23.3%.

How did the “% control” value [25] turn out when `O=C(O)COc1nc(Cl)c(Cl)cc1Cl` [Triclopyr, triclopyr] was run?
The value was 8%.

And the “% control” value [26]?
The value was 13.3%.

And the “% control” value [27]?
The value was 6.7%.

What about the “% control” value [28] of the same molecule?
Its value is 6.7%.

What about the “% control” value [29] of the same molecule?
The value was 6.7%.
